For one assay, the system named is PC3 (prostate). Nature of the assay: In vitro cytotoxic activity (MTT) assay, PC3. The settings on record: Homo sapiens, Prostate cell; PC3 (prostate) cells, exposed 96 hours; read-out: IC50, concentration eliciting 50% inhibition of cell proliferation. Type of assay: cell-based. Here is the method: (§1) Compounds 1-16 were screened for their in vitro cytotoxic activity utilizing a 3-(4,5-dimethyl-thiazol-2-yl)-2,5-diphenyltetrazolium bromide (MTT) assay against selected cancer human cell lines consisting of PC3 (prostate), HCT116 (colon), A375 (melanoma), H1299 (lung), MIAPaCa-2 (pancreas), HL60 (leukemia), MCF7 (breast), MDA-MB-231 (breast) (T. Mosmann, J. Immunol. Meth., 1983, 65, 55-63). The cells were cultured at 37° C. in RMPI1640 medium supplemented with 10% fetal bovine serum, 50 IU/mL penicillin, and 50 μg/mL streptomycin in a 5% CO2 incubator. All cells were sub-cultured 3 times/week by trypsinisation. Viable cells were seeded and allowed to adhere for 12 h before a test drug was added in 96-well plates at an initial density of 1.0×10^5 cells/mL. Tumor cell lines were separately exposed to various concentrations of the tested compounds followed by incubation at a temperature of 37° C. during 96 h inside a medium of fresh RMPI 1640. Cells were subsequently incubated at 37° C. using MTT at 0.5 mg/mL during 4 h. After removal of supernatant, formazan crystals were dissolved in isopropanol and the optical density was measured at 570 nm. CX-4945 was used as a positive control.

Another assay has as its system HCT116 (colon). Kind of assay: In vitro cytotoxic activity (MTT) assay, HCT116. Type of assay: cell-based. The note with it: Homo sapiens, HCT-116; HCT116 (colon) cells, exposed 96 hours; read-out: IC50, concentration eliciting 50% inhibition of cell proliferation. On the procedure: as §1
The next assay has as its system A375 (melanoma). Kind of assay: In vitro cytotoxic activity (MTT) assay, A375. Type of assay: cell-based. The settings on record: Homo sapiens, A-375; A375 (melanoma) cells, exposed 96 hours; read-out: IC50, concentration eliciting 50% inhibition of cell proliferation. On the procedure: as §1
In the next assay the test system is H1299 (lung). Kind of assay: In vitro cytotoxic activity (MTT) assay, H1299. Format: cell-based. The note with it: Homo sapiens, NCI-H1299; H1299 (lung) cells, exposed 96 hours; read-out: IC50, concentration eliciting 50% inhibition of cell proliferation. Here is the method: as §1
In a further assay the test system is MIAPaCa-2 (pancreas). Kind of assay: In vitro cytotoxic activity (MTT) assay, MIAPaCa-2. Type of assay: cell-based. The settings on record: Homo sapiens, MIA PaCa-2; MIAPaCa-2 (pancreas) cells, exposed 96 hours; read-out: IC50, concentration eliciting 50% inhibition of cell proliferation. Here is the method: as §1
Another assay relates to HL60 (leukemia). Kind of assay: In vitro cytotoxic activity (MTT) assay, HL60. Type of assay: cell-based. The settings on record: Homo sapiens, HL-60; HL60 (leukemia) cells, exposed 96 hours; read-out: IC50, concentration eliciting 50% inhibition of cell proliferation. On the procedure: as §1
The subject of the next assay is MCF7 (breast). Kind of assay: In vitro cytotoxic activity (MTT) assay, MCF7. Format: cell-based. The note with it: Homo sapiens; MCF7 (breast) cells, exposed 96 hours; read-out: IC50, concentration eliciting 50% inhibition of cell proliferation. On the procedure: as §1
A further assay concerns MDA-MB-231 (breast). Kind of assay: In vitro cytotoxic activity (MTT) assay, MDA-MB-231. Type of assay: cell-based. The note with it: Homo sapiens; MDA-MB-231 (breast) cells, exposed 96 hours; read-out: IC50, concentration eliciting 50% inhibition of cell proliferation. On the procedure:
as §1

The target of assay [1] is T1, recombinant human CK2 (RRββ-holoenzyme) (Homo sapiens, UniProt P68400).
T1 construct: purchased Millipore
T1 sequence (P68400 whole entry): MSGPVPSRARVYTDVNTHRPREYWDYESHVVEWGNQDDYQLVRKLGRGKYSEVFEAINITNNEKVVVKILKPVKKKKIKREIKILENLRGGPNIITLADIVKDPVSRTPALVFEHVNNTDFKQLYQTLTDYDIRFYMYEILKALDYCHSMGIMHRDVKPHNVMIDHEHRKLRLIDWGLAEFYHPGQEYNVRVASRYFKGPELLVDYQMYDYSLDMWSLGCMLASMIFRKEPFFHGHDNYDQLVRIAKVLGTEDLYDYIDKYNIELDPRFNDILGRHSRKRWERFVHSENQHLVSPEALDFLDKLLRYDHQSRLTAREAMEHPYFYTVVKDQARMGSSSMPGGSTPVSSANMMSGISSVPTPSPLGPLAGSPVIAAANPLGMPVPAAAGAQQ
T1 sequence (P67870 whole entry partner): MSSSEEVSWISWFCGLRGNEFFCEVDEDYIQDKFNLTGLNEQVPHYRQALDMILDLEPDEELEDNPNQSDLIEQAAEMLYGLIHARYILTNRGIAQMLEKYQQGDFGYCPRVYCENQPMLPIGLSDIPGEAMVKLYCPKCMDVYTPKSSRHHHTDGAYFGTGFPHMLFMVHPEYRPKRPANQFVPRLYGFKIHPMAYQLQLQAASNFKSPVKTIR
Kind of assay: CK2 Kinase Assay (33P-ATP, substrate peptide RRRDDDSDDD). The note with it: final ATP concentration 15 μM, 10 min at 30° C.; read-out: protein kinase CK2 IC50. Type of assay: biochemical. Here is the method: CK2 Kinase Assay was conducted using the protocol as described in Pierre F. et al; J. Med. Chem. 2011, 54, 635-654. The tested compounds in aqueous solution were added at a volume of 10 μL to a reaction mixture comprising 10 μL of assay dilution buffer (ADB; 20 mM MOPS, pH 7.2, 25 mM β-glycerol phosphate, 5 mM EGTA, 1 mM sodium orthovanadate, and 1 mM dithiothreitol), 10 μL of substrate peptide (RRRDDDSDDD, dissolved in ADB at a concentration of 1 mM), 10 μL of recombinant human CK2 (RRββ-holoenzyme, 25 ng dissolved in ADB; Millipore). Reactions were initiated by the addition of 10 μL of ATP solution (90% 75 mM MgCl2, 75 μM ATP (final ATP concentration:15 μM) dissolved in ADB; 10% [γ-33P] ATP (stock 1 mCi/100 μL; 3000 Ci/mmol (Perkin-Elmer) and maintained for 10 min at 30° C. The reactions were quenched with 100 μL of 0.75% phosphoric acid and then transferred to and filtered through a phosphor cellulose filter plate (Millipore). After washing each well five times with 0.75% phosphoric acid, the plate was dried under vacuum for 5 min and, following the addition of 15 μL of scintillation fluid to each well, the residual radioactivity was measured using a Wallac […]. The IC50 values were derived from eight concentrations of test inhibitors.

In US11858935B1, “Pyrrolo[2,3-c][1,7]naphthyridine-2-carboxylic acid compounds as CK2 inhibitors” (KING FAISAL UNIVERSITY, priority 2023, dated 2024) one finds IC50 data, which are given here for one compound.

In the case of `O=C(O)c1cc2c([nH]1)c(Nc1cccc(Cl)c1)nc1cnccc12` [Compound 1, 4-((3-chlorophenyl)amino)-3H-pyrrolo[2,3-c][1,7]naphthyridine-2-carboxylic acid], the IC50 in the assay with PC3 (prostate) amounted to 1500 nM; in the assay with HCT116 (colon), 1800 nM; in the assay with A375 (melanoma) it was 2300 nM; in the assay on H1299 (lung), 1400 nM; in the assay with MIAPaCa-2 (pancreas) it was 1700 nM; in the assay on HL60 (leukemia) it was 3100 nM. For the same compound, the IC50 in the assay with MCF7 (breast) amounted to 4200 nM; with MDA-MB-231 (breast), 3600 nM; in assay [1], 26 nM.
